# Measured values as given in patent publication US6399585B1, “In Utero treatment of CFTR-related deficiencies” (priority 1996, dated 2002).
# What was measured:
# [1] = test system: cftr deficient mice; assay: Survival of mice after in utero ATP or cftr treatment; assay type: in vivo, mouse
# Procedure: (§1) Female heterozygous UNC knockout X C57bl/6 mouse 5th generation backcross mice were mated with either heterozygous and previously rescued homozygous knockout mice. At 15-16 days gestation animals were anesthetized as in Example (II)(C)(2) and the fetuses surgically exposed for injection. Virus (10^9 particles/ml of amniotic fluid) was injected into the amniotic fluid. Normal delivery of the animals was allowed to take place.
# as §1, with “20 ul” for “Virus (10^9 particles/ml”, “a 20 mM ATP in sterile physiological saline” for “amniotic fluid)”
# [2] = test system: intracellular calcium stores; assay: Intracellular calcium stores in intestines (Calcium Green, confocal microscopy); assay type: in vivo, mouse; conditions: cftr−/− mice, in utero ATP-treatment, examined at 65 days old
# Procedure: (§2) All tissues were sectioned and washed in phosphate buffered saline. Stock solutions (1 mM) of stains obtained from Molecular Probes were used. Two microliters/ml of either CaGreen-AM. (Molecular Probes) or Rhodamine green-UTP (Molecular Probes) was added to the tissue, then incubated for 1-2 hrs All samples were examined on a Noran Odyssey CLSM with a Nikon Diaphot inverted microscope. The software used for the imaging was Noran's Intervision running on a SGI Indy workstation.
# Calcium plays an integral role in secretion. […] Calcium Green™, a flourescent stain for intracellular calcium, was applied to cross-sections of both control and in utero cftr-treated cftr−/− and cftr+/− mice. All samples were examined by confocal microscopy.
# Intracellular calcium stores were evaluated after in utero ATP rescue, as previously described.
# [3] = test system: UTP receptors; assay: UTP receptors in intestines (Rhodamine green-UTP staining); assay type: in vivo, mouse; conditions: knockout mice, ATP rescue, 65 day old mice
# Procedure: as §2
# Multiple purinergic receptors and multiple signal transduction pathways are activated in different membrane domains of tracheal epithelia (Hwang, Schwiebert et al. 1996) (Devidas and Guggino 1997). Functional characterization of the P2 purinoceptor superfamily support a diverse functional role for ATP and related nucleotides in the regulation of tissue function (Williams 1996). To examine the possible role of these purinergic receptors, changes in UTP receptors in treated and normal intestines were examined using UTP labeled with fluorescent rhodamine green to stain sections of intestines.
# Changes in UTP receptors in ATP-treated intestines were examined using UTP labeled with fluorescent rhodamine green to stain sections of intestines.
# [4] = biological target: T1, ENaC (Homo sapiens, UniProt P37088+P51168+P51170); conditions: cited from earlier work
# T1 sequence (P37088 1-669): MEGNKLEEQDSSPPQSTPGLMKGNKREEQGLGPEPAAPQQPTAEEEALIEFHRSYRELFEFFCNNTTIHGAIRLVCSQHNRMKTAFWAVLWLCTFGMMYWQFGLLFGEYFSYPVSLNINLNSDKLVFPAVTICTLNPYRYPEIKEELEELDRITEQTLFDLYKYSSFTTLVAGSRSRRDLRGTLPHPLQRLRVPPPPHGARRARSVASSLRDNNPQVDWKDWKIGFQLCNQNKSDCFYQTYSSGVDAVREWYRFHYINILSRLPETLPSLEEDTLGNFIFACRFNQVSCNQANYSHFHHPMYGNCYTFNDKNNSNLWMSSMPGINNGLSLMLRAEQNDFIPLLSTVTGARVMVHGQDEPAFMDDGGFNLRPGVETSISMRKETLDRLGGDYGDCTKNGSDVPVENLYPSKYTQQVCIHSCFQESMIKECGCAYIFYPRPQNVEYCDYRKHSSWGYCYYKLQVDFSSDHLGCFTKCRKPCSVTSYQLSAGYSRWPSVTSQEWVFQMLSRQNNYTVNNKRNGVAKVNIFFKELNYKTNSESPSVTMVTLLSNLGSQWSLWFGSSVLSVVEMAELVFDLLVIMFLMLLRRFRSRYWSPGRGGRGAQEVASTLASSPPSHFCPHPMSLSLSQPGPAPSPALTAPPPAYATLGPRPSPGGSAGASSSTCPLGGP
# T1 sequence (P51168 1-640): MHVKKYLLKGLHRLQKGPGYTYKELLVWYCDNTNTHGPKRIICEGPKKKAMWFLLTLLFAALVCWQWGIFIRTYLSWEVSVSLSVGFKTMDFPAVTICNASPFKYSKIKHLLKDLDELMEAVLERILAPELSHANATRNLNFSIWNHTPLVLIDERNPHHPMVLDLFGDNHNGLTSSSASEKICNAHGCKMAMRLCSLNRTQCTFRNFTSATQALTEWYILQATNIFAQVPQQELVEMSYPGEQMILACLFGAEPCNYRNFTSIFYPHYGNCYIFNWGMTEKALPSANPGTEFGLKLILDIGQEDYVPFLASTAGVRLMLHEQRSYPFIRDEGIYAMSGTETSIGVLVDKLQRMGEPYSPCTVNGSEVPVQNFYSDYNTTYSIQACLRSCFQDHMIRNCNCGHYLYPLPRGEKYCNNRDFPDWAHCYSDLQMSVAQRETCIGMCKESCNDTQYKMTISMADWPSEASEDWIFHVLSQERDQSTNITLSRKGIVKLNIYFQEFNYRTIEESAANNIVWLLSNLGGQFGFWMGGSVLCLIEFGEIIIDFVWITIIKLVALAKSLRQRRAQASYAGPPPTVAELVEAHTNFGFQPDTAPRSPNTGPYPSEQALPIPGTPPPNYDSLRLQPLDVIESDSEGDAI
# T1 sequence (P51170 1-649): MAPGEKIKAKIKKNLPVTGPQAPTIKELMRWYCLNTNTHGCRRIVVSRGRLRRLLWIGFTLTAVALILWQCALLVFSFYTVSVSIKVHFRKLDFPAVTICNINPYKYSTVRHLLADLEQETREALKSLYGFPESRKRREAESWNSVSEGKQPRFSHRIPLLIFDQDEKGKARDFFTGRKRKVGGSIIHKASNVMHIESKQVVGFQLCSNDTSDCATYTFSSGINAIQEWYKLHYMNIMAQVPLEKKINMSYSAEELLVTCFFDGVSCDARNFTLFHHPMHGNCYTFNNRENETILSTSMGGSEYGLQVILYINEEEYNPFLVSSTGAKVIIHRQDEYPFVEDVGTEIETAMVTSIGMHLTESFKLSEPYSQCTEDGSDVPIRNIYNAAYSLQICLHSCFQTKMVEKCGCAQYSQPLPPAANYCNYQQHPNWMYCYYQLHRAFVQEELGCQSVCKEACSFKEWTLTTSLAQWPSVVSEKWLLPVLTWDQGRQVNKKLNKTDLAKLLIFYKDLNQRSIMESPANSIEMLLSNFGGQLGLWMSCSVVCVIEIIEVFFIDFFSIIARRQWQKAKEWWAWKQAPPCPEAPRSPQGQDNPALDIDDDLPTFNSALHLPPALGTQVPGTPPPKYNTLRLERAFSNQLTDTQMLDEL
# [5] = test system: non-CFTR Cl- channels; conditions: cited from earlier work
# [6] = Table 8, living greater than 60 days
smiles,measurement,setting,value
"Nc1ncnc2c1ncn2[C@@H]1O[C@H](COP(=O)(O)OP(=O)(O)OP(=O)(O)O)[C@@H](O)[C@H]1O [ATP, adenosine triphosphate]",survival of cftr deficient mice,[1]; 20 ul of 20 mM ATP into amniotic fluid at 15-16 days gestation,improved the survival
same,"+/− Survivors, number",[1]; [6],9
same,"−/− Survivors, number",[1]; [6],3
same,"+/+ Survivors, number","[1]; Table 8, living greater than 60 days, treated at 15-16 days gestation",4
same,+/+ Survivors (%),"[1]; Table 8, share of survivors",25%
same,+/− Survivors (%),"[1]; Table 8, share of survivors",56%
same,−/− Survivors (%),"[1]; Table 8, share of survivors",19%
same,toxicity inferred from genotype distribution of survivors,[1]; regardless of genotype,non-toxic
same,intracellular Ca2+ stores in intestines,[2],restored intracellular Ca2+ in cells of the crypt
same,UTP receptors in intestines,[3],restored the UTP receptors
N=C(N)NC(=O)c1nc(Cl)c(N)nc1N [Amiloride],ENaC conduction,[4],block conduction
"O=c1ccn([C@@H]2O[C@H](COP(=O)(O)OP(=O)(O)OP(=O)(O)O)[C@@H](O)[C@H]2O)c(=O)[nH]1 [UTP, uridine triphosphate]",Cl- (and liquid) secretion,"[5]; aerosolized, CF airway epithelia",induces Cl- (and liquid) secretion
same,mucociliary clearance,"[5]; aerosolized, pilot studies in normal subjects",effective stimulator of mucociliary clearance
same,tolerability,"[5]; short-term aerosolized, normal subjects and patients with CF",well tolerated
Nc1nc(N)c2nc(-c3ccccc3)c(N)nc2n1 [triamterene],ENaC conduction,[4],block conduction
